Usually inhibition stands for the change of the read-out against control, counted positive when it falls. High values mean a response far below the control, low ones a response near the control. As usually defined, the IC50 is the point on the concentration scale where inhibition reaches its midpoint. Lower therefore signals higher potency.

Assay [1] has as its target T1, Dihydroorotate dehydrogenase (quinone), mitochondrial (Homo sapiens, UniProt Q02127). Nature of the assay: Inhibition of human DHODH at 10 uM using dihydroorotate substrate by DCIP assay relative to control.
The target of assay [2] is T1, Dihydroorotate dehydrogenase (quinone), mitochondrial. Nature of the assay: Inhibition of human DHODH using dihydroorotate substrate by DCIP assay.

T1 sequence (Q02127 whole entry): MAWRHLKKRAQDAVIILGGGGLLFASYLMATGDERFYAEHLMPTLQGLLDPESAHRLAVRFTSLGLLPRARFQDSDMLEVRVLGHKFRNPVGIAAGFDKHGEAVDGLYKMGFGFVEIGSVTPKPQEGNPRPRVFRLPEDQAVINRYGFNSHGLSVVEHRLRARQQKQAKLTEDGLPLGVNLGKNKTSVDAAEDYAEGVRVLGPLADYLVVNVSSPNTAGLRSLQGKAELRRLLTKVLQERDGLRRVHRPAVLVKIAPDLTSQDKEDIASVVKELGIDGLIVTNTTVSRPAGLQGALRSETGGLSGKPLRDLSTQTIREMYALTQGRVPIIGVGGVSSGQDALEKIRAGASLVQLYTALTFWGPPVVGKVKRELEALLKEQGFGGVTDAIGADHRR

In assay [1], `COC(=O)/C(C#N)=C1\SCC(=O)N1c1ccc(OC)cc1F` registered an inhibition of 40.4%. The IC50 in assay [2] was greater than 10 µM.
The like results for `COC(=O)/C(C#N)=C1\SCC(=O)N1c1ccc(Br)cc1` were, in that order, 69% and 2.68 µM.
For the compound `COC(=O)/C(C#N)=C1\SCC(=O)N1c1ccc(C(C)(C)C)cc1`, the inhibition in assay [1] was determined as 79.1%.
The compound `COC(=O)/C(C#N)=C1\SCC(=O)N1c1ccc(OC)cc1` displayed an inhibition in assay [1] of 52.5%. This compound had an IC50 in assay [2] of 9.45 µM.
The like results for `COC(=O)/C(C#N)=C1\SCC(=O)N1c1ccnc(Cl)c1` were, in that order, 45.4% and greater than 10 µM.
Regarding `COC(=O)/C(C#N)=C1\SCC(=O)N1c1ccc2ccccc2c1`, the inhibition in assay [1] is 80.3%.
For the compound `N#C/C(C(N)=O)=C1/SCC(=O)N1c1ccccc1F`, the inhibition in assay [1] was 11.8%. In assay [2], this compound yielded an IC50 greater than 10 µM.
The like results for `CCOC(=O)/C(C#N)=C1\SCC(=O)N1c1ccccc1F` were, in that order, 38.2% and greater than 10 µM.
Taken in the same sequence, the figures for `CCOC(=O)C(C(=O)OCC)=C1SCC(=O)N1c1ccccc1F` were 8.71% and greater than 10 µM.
Taken in the same sequence, the figures for `COC(=O)/C(C#N)=C1\SCC(=O)N1c1ccccc1I` were 18.4% and greater than 10 µM.
`COC(=O)/C(C#N)=C1\SCC(=O)N1c1ccccc1F` displayed an inhibition in assay [1] of 34.9%. This compound also displayed an IC50 in assay [2] greater than 10 µM.
Taken in the same sequence, the figures for `COC(=O)C(C(=O)OC)=C1SCC(=O)N1c1ccccc1F` were 4.27% and greater than 10 µM.
The compound `COC(=O)/C(C#N)=C1\SCC(=O)N1c1ccccc1Cl` gave an inhibition in assay [1] of 40%. The IC50 in assay [2] is greater than 10 µM.
Taken in the same sequence, the figures for `COC(=O)/C(C#N)=C1\SCC(=O)N1c1ccc(C(=O)O)cc1` were 15.1% and greater than 10 µM.
The like results for `COC(=O)/C(C#N)=C1\SCC(=O)N1c1cccc2ccccc12` were, in that order, 21.9% and greater than 10 µM.
Taken in the same sequence, the figures for `CCCCOC(=O)/C(C#N)=C1\SCC(=O)N1c1ccccc1F` were 28.8% and greater than 10 µM.
The compound `COC(=O)/C(C#N)=C1\SCC(=O)N1c1ccc(F)cc1` returned an inhibition in assay [1] of 49.4%. The IC50 in assay [2] is 10.6 µM.
Taken in the same sequence, the figures for `COC(=O)/C(C#N)=C1\SCCC(=O)N1c1ccccc1F` were 15.7% and greater than 10 µM.
The like results for `COC(=O)/C(C#N)=C1\SCC(=O)N1c1ccc(C(F)(F)F)cc1` were, in that order, 74.4% and 3.03 µM.
Taken in the same sequence, the figures for `COC(=O)/C(C#N)=C1\SCCN1c1ccccc1F` were 11.1% and greater than 10 µM.
For the compound `COC(=O)/C(C#N)=C1\SCC(=O)N1c1cccc(F)c1`, the inhibition in assay [1] was 34.1%. In assay [2], this compound returned an IC50 greater than 10 µM.
Regarding `COC(=O)/C(C#N)=C1\SCC(=O)N1c1cccc(Cl)c1`, in assay [1], the inhibition came out at 56.9%. The compound also came in with an IC50 in assay [2] of 8.51 µM.
Taken in the same sequence, the figures for `N#C/C(C(=O)O)=C1/SCC(=O)N1c1ccccc1F` were 14.9% and greater than 10 µM.
The like results for `COC(=O)/C(C#N)=C1\SCC(=O)N1c1ccc([N+](=O)[O-])cc1` were, in that order, 62.9% and 4.41 µM.
Taken in the same sequence, the figures for `COC(=O)/C(C#N)=C1\SCC(=O)N1c1cccc(Cl)n1` were 43.7% and greater than 10 µM.
In the case of `O=C1CSC(=S)N1c1ccc(C(F)(F)F)cc1`, the inhibition in assay [1] turned out to be 25.6%. This compound showed an IC50 in assay [2] greater than 10 µM.
Taken in the same sequence, the figures for `CCCOC(=O)/C(C#N)=C1\SCC(=O)N1c1ccccc1F` were 33.5% and greater than 10 µM.
The compound `CC(C)(C)OC(=O)/C(C#N)=C1\SCC(=O)N1c1ccccc1F` had an inhibition in assay [1] of 33.9%. Further, the IC50 in assay [2] is greater than 10 µM.

The values above are taken from ChEMBL document CHEMBL4261511, “Synthesis, structure-activity relationship and binding mode analysis of 4-thiazolidinone derivatives as novel inhibitors of human dihydroorotate dehydrogenase” (Medchemcomm, 2017).
